What was measured:
[1] = target: T1, Human Glucocorticoid Receptor (Homo sapiens, UniProt P04150); assay: Competition Binding in IM-9 Human Glucocorticoid Receptor (GR IM-9); conditions: cytosol from IM-9 cell line, 1.5 nM [3H]-Dexamethasone, 4° C. for 6 hours
T1 construct: endogenous in cells; host or cells: cytosol from IM-9 cell line
T1 sequence (P04150 1-777): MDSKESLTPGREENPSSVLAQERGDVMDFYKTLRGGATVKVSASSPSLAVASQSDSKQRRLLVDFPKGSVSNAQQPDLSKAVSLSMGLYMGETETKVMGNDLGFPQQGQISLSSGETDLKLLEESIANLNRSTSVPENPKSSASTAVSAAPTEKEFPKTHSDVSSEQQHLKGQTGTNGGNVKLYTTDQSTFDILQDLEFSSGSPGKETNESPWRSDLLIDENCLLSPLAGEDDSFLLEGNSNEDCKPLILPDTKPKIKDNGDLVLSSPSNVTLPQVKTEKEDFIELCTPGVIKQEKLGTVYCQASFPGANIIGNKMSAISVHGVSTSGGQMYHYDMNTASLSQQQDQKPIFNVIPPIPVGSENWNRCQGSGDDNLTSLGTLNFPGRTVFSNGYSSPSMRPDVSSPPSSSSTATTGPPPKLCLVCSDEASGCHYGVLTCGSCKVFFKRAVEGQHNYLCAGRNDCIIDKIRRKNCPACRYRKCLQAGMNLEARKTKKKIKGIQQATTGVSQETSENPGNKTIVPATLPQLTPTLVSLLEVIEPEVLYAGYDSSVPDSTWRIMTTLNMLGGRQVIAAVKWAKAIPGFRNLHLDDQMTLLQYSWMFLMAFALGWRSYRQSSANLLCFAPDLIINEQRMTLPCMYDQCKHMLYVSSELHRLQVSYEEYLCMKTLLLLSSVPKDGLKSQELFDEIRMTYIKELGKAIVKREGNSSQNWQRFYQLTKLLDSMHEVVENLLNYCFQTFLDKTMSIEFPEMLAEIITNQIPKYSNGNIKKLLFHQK
Summary of the method: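 Radioligand competition using 100 μg IM-9 cell cytosol and 1.5 nM [3H]-dexamethasone, incubated 6 h at 4° C in TES/molybdate buffer, pH 7.4. Filtration on PEI-treated GF/B filters, scintillation counting; nonspecific binding defined with 10 μM triamcinolone.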

[2] = target: T2, human androgen receptor (Homo sapiens, UniProt P10275, T878A); assay: Human Androgen Receptor Binding (radioligand binding, LnCap prostate cancer cell line); conditions: LnCap cells, displacement of [^3H]-methyltrienolone, 2 hours at 37° C.; read-out: AR LNCaP
T2 construct: endogenously expressed human androgen receptor using the LnCap prostate cancer cell line; endogenous in cells; host or cells: LNCaP prostate cancer cell line (whole cells)
T2 sequence (P10275 1-920 T878A): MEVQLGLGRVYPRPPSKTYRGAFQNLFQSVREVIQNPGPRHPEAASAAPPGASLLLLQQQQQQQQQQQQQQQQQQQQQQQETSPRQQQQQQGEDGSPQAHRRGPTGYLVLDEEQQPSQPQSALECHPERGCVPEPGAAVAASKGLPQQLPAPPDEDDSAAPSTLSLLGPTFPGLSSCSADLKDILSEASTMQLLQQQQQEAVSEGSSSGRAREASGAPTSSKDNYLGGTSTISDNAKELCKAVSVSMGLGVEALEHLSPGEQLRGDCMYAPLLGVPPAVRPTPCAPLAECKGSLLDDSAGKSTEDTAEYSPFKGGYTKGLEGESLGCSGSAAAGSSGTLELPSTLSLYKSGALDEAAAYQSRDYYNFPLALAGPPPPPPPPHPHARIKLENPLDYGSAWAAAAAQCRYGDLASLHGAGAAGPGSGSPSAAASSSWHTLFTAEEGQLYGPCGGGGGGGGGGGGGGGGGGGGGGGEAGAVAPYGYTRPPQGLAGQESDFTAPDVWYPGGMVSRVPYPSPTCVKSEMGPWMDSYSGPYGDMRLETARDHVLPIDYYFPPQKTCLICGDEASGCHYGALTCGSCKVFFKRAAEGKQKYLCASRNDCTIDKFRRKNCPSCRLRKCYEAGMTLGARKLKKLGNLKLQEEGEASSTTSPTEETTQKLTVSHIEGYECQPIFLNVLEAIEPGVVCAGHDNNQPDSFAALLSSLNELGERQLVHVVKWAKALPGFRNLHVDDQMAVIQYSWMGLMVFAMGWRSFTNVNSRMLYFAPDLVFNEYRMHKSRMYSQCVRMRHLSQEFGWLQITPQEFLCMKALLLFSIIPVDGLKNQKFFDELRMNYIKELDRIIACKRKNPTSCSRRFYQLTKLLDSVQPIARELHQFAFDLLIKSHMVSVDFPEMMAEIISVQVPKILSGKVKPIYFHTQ
Experimental: Human Androgen Receptor Binding
Radioligand binding studies were carried out on endogenously expressed human androgen receptor using the LnCap prostate cancer cell line. The test is based on measuring radioactively labelled AR ligand [^3H]-methyltrienolone that gets displaced by increasing concentrations of test compound. The test is performed in 96-well plates (Falcon, #353072). Positive and negative controls are also required in each analyzed plate to evaluate the total and non-specific binding binding of the radioligand to the receptor. Cells (60000 per well) were incubated for 24 hours before executing the experiment at 37° C. and in a 5% CO2 atmosphere. Medium was replaced by assay buffer (RPMI-640 (ATCC #30-2001) supplemented with 0.1% bovine serum albumin (Sigma #8806-56) and Triamcinolone acetonide (Sigma #T6501)). The compounds at the desired concentrations and [^3H]methyltrienolone (Perkin Elmer #NET590) were added to the wells.
In order to obtain a dose-response curve and calculate the potency of inhibition (expressed as IC50) for AR, a series of 1:10 dilutions in test in 1× buffer from 10 μM to 0.1 nM for each compound was carried out.
Cells were incubated for 2 hours at 37° C. in a 5% CO2 atmosphere and then washed twice with ice-cold HBSS. Then cells were lysed with solubilization buffer (Hank's Balanced Salt Solution (HBSS, Sigma #H6648), 0.5% Sodium dodecyl sulfate 0.5% (SDS, Sigma #L7390-500G, Lote: 078K0102) and 20% Glycerol (Sigma Aldrich, #G2025) for 30 minutes at RT. 75 μL aliquots were taken from each well and transferred to a 96-well flexiplate (Perkin Elmer #1450-401) and mixed with 100 μL of scintillation cocktail (Optiphase supermix, PerkinElmer, #1200-439). Plates are shaken for 60 minutes and radioactivity was measured in a beta scintillation counter (Microbeta Trilux, Perkin Elmer).

IC50 [1] [nM]	IC50 [2] [nM]	SMILES
< 100	100 to 1000	CC(=O)C1=C(C)NC(C(F)(F)F)=C(C(=O)OCc2ccccc2)C1c1csc2ncccc12 (stereo not drawn) [Example C56, Benzyl 5-acetyl-6-methyl-4-(thieno[2,3-b]pyridin-3-yl)-2-(trifluoromethyl)-1,4-dihydropyridine-3-carboxylate]
< 100	≥ 1000	CC(=O)C1=C(C)NC(C)=C(C(=O)OC2CCC(C)(C)CC2)C1c1csc2ncccc12 (stereo not drawn) [Example C76, 4,4-dimethylcyclohexyl 5-acetyl-2,6-dimethyl-4-(thieno[2,3-b]pyridin-3-yl)-1,4-dihydropyridine-3-carboxylate]
100 to 1000	≥ 1000	CC(=O)C1=C(C)NC(C)=C(C(=O)OC2CCOCC2)C1c1csc2ncccc12 (stereo not drawn) [Example C78, Tetrahydro-2H-pyran-4-yl 5-acetyl-2,6-dimethyl-4-(thieno[2,3-b]pyridin-3-yl)-1,4-dihydropyridine-3-carboxylate]
< 100	100 to 1000	COC(=O)C1=C(C#N)NC(C2CC2)=C(C(=O)OC)C1c1csc2c(C#N)cccc12 (stereo not drawn) [Example C112, Dimethyl 2-cyano-4-(7-cyanobenzo[b]thiophen-3-yl)-6-cyclopropyl-1,4-dihydropyridine-3,5-dicarboxylate]
< 100	100 to 1000	COC(=O)C1=C(C)NC(C#N)=C(C(=O)OC)C1c1csc2c(C#N)cccc12 (stereo not drawn) [Example C113, Dimethyl 2-cyano-4-(7-cyanobenzo[b]thiophen-3-yl)-6-methyl-1,4-dihydropyridine-3,5-dicarboxylate]
< 100	100 to 1000	COC(=O)C1=C(C)NC(CO)=C(C(=O)OC)C1c1csc2c(C#N)cccc12 (stereo not drawn) [Example C120, Dimethyl 4-(7-cyanobenzo[b]thiophen-3-yl)-2-(hydroxymethyl)-6-methyl-1,4-dihydropyridine-3,5-dicarboxylate]
< 100	< 100	CC(=O)C1=C(C(=O)OCC2CC2)C(c2csc3c(C#N)cccc23)C(C(C)=O)=C(C)N1 (stereo not drawn) [Example C123, Cyclopropylmethyl 2,5-diacetyl-4-(7-cyanobenzo[b]thiophen-3-yl)-6-methyl-1,4-dihydropyridine-3-carboxylate]
< 100	≥ 1000	COC(=O)C1=C(C)NC(N)=C(C(=O)OCc2ccc(F)cc2)C1c1csc2c(C#N)cccc12 (stereo not drawn) [Example D22, 3-(4-fluorobenzyl) 5-methyl 2-amino-4-(7-cyanobenzo[b]thiophen-3-yl)-6-methyl-1,4-dihydropyridine-3,5-dicarboxylate]
< 100	100 to 1000	COC(=O)C1=C(C2CC2)NC(N)=C(C(=O)OCc2ccc(F)cc2)C1c1csc2c(C#N)cccc12 (stereo not drawn) [Example D23, 3-(4-fluorobenzyl) 5-methyl 2-amino-4-(7-cyanobenzo[b]thiophen-3-yl)-6-cyclopropyl-1,4-dihydropyridine-3,5-dicarboxylate]
< 100	≥ 1000	CC1=C(C#N)C(c2csc3c(C#N)cccc23)C(C(=O)OCc2ccc(F)cc2)=C(N)N1 (stereo not drawn) [Example D25, 4-Fluorobenzyl 2-amino-5-cyano-4-(7-cyanobenzo[b]thiophen-3-yl)-6-methyl-1,4-dihydropyridine-3-carboxylate]
100 to 1000	100 to 1000	N#CC1=C(N)NC(C2CC2)=C(C(=O)OCC2CC2)C1c1csc2c(C#N)cccc12 (stereo not drawn) [Example D26, Cyclopropylmethyl 6-amino-5-cyano-4-(7-cyanobenzo[b]thiophen-3-yl)-2-cyclopropyl-1,4-dihydropyridine-3-carboxylate]
< 100	100 to 1000	CC(=O)C1=C(C)NC(N)=C(C(=O)OC2CCCCC2)C1c1csc2c(C#N)cccc12 (stereo not drawn) [Example D29, Cyclohexyl 5-acetyl-2-amino-4-(7-cyanobenzo[b]thiophen-3-yl)-6-methyl-1,4-dihydropyridine-3-carboxylate]
< 100	100 to 1000	COC(=O)C1=C(C)NC(N)=C(C(=O)OCC2CCC2)C1c1csc2c(C#N)cccc12 (stereo not drawn) [Example D33, 3-(Cyclobutylmethyl) 5-methyl 2-amino-4-(7-cyanobenzo[b]thiophen-3-yl)-6-methyl-1,4-dihydropyridine-3,5-dicarboxylate]
< 100	100 to 1000	COC(=O)C1=C(C)NC(N)=C(C(=O)OCC2CC(F)(F)C2)C1c1csc2c(C#N)cccc12 (stereo not drawn) [Example D34, 3-((3,3-Difluorocyclobutyl)methyl) 5-methyl 2-amino-4-(7-cyanobenzo[b]thiophen-3-yl)-6-methyl-1,4-dihydropyridine-3,5-dicarboxylate]
100 to 1000	100 to 1000	CC1=C(C(N)=O)C(c2csc3c(C#N)cccc23)C(C(=O)OCC2CC2)=C(N)N1 (stereo not drawn) [Example D35, Cyclopropylmethyl 2-amino-5-carbamoyl-4-(7-cyanobenzo[b]thiophen-3-yl)-6-methyl-1,4-dihydropyridine-3-carboxylate]
< 100	100 to 1000	COC(=O)C1=C(C)NC(N)=C(C(=O)OCC2CC2(F)F)C1c1csc2c(C#N)cccc12 (stereo not drawn) [Example D36, 3-((2,2-Difluorocyclopropyl)methyl) 5-methyl 2-amino-4-(7-cyanobenzo[b]thiophen-3-yl)-6-methyl-1,4-dihydropyridine-3,5-dicarboxylate]
< 100	100 to 1000	COC(=O)C1=C(C2CC2)NC(N)=C(C(=O)OCC2CC2(F)F)C1c1csc2c(C#N)cccc12 (stereo not drawn) [Example D38, 3-((2,2-Difluorocyclopropyl)methyl) 5-methyl 2-amino-4-(7-cyanobenzo[b]thiophen-3-yl)-6-cyclopropyl-1,4-dihydropyridine-3,5-dicarboxylate]
< 100	100 to 1000	COC(=O)C1=C(C)NC(N)=C(C(=O)OCC2CC2)C1c1csc2c(C#N)ccc(F)c12 (stereo not drawn) [Example D40, 3-(cyclopropylmethyl) 5-methyl 2-amino-4-(7-cyano-4-fluorobenzo[b]thiophen-3-yl)-6-methyl-1,4-dihydropyridine-3,5-dicarboxylate]

Reference: patent US11453660B2, “Androgen receptor and glucocorticoid receptor modulators” (ONCOSTELLAE, S.L., priority 2017, dated 2022)
